Values joined by “and” are separate entries in the source; they are usually repeats but may differ in a detail not shown here. Identical values can stand only once. After the bases stand the sugars from the 5' end (letter, count) and the backbone: PS all phosphorothioate, else s phosphorothioate and o phosphodiester by linkage. Methylation of C is not given here. e = 2'-O-(2-methoxyethyl) (MOE); k = constrained ethyl (cEt); d = 2'-deoxy (DNA)
Biological target: APOL1
Conditions: ASO

| Sequence | target mRNA inhibition (A431, 0.0625 µM) | target mRNA inhibition (A431, 0.25 µM) | target mRNA inhibition (A431, 1 µM) | target mRNA inhibition (A431, 2 µM) [%] | target mRNA inhibition (A431, 0.0156 µM) [%] | target mRNA inhibition (A431, 0.04 µM) [%] |
| --- | --- | --- | --- | --- | --- | --- |
| ACTTTTTCACCATAGC (sugars k4 d9 k3, PS) | 53% | 82% | 93% | – | – | – |
| AGATGGGTACTTCTGT (sugars k4 d9 k3, PS) | 85% | 88% | 93% | – | – | – |
| AGATGTGTTTAGGCAT (sugars k4 d9 k3, PS) | 54% | 85% | 95% | – | – | – |
| AGCTTTAAACTCAGGT (sugars k2 d4 e3 k2 d5, PS) | – | – | – | 93 | – | – |
| AGCTTTAAACTCAGGT (sugars k3 d4 k3 e1 d5, PS) | – | – | – | 82 | – | – |
| AGCTTTAAACTCAGGT (sugars kdddddkekekddddd, PS) | 46% | 80% | 92% | 95 | 14 | – |
| AGCTTTAAACTCAGGT (sugars kkdddddkekeddddd, PS) | 53% | 79% | 92% | 94 | 31 | – |
| AGCTTTAAACTCAGGT (sugars kkddddekekeddddd, PS) | – | – | – | 92 | – | – |
| AGCTTTAAACTCAGGT (sugars kkddddkdkdkddddd, PS) | – | – | – | 86 | – | – |
| AGCTTTAAACTCAGGT (sugars kkddddkekekddddd, PS) | – | – | – | 87 | – | – |
| AGCTTTAAACTCAGGT (sugars kkkddddkdkdkdddd, PS) | – | – | – | 74 | – | – |
| AGGGAAATGAACGCAA (sugars k4 d9 k3, PS) | 38% | 65% | 85% | – | – | – |
| AGTATTGCCAGCTAAG (sugars k2 d4 e3 k2 d5, PS) | – | – | – | 86 | – | – |
| AGTATTGCCAGCTAAG (sugars kkddddkdkdkddddd, PS) | – | – | – | 69 | – | – |
| AGTATTGTTTTTGTGG (sugars kkddddekekeddddd, PS) | – | – | – | 89 | – | – |
| AGTATTGTTTTTGTGG (sugars kkddddkdkdkddddd, PS) | – | – | – | 72 | – | – |
| AGTTTTGTAAGTGCAA (sugars k3 d4 k3 e1 d5, PS) | 60% | 87% | 94% | 96 | 15 | – |
| AGTTTTGTAAGTGCAA (sugars kkddddekekeddddd, PS) | 53% | 79% | 91% | 91 | 25 | – |
| AGTTTTGTAAGTGCAA (sugars kkddddkdkdkddddd, PS) | 34% | 72% | 85% | 91 | 16 | – |
| ATCAGATGGGTACTTC (sugars k2 d4 e3 k2 d5, PS) | – | – | – | 67 | – | – |
| ATCAGATGGGTACTTC (sugars kdddddkekekddddd, PS) | – | – | – | 73 | – | – |
| ATCAGATGGGTACTTC (sugars kkdddddkekeddddd, PS) | – | – | – | 83 | – | – |
| ATCAGATGGGTACTTC (sugars kkddddkdkdkddddd, PS) | – | – | – | 78 | – | – |
| ATCCTGGGCGGCGACA (sugars k4 d9 k3, PS) | 35% and 28% | 62% and 50% | 82% and 72% | – | – | – |
| ATTCAGAATTTCCACT (sugars k2 d4 e4 k2 d4, PS) | – | – | – | 64 | – | – |

| Sequence | target mRNA inhibition (A431, 0.0625 µM) | target mRNA inhibition (A431, 0.25 µM) | target mRNA inhibition (A431, 1 µM) | target mRNA inhibition (A431, 2 µM) [%] | target mRNA inhibition (A431, 0.0156 µM) [%] | target mRNA inhibition (A431, 0.04 µM) [%] |
| --- | --- | --- | --- | --- | --- | --- |
| ATTCAGAATTTCCACT (sugars k3 d4 k3 e1 d5, PS) | – | – | – | 89 | – | – |
| ATTCAGAATTTCCACT (sugars kkddddkdkdkddddd, PS) | – | – | – | 79 | – | – |
| ATTCTATTAGAGGGCT (sugars kkddddekekeddddd, PS) | – | – | – | 25 | – | – |
| ATTCTATTAGAGGGCT (sugars kkddddkekekddddd, PS) | – | – | – | 46 | – | – |
| ATTCTATTGGGCCTCA (sugars k4 d9 k3, PS) | 28% | 62% | 86% | – | – | – |
| ATTCTCATGGTACAGG (sugars k3 d4 k3 e1 d5, PS) | 48% | 72% | 88% | 93 | 17 | – |
| ATTCTCATGGTACAGG (sugars k3 d5 k3 d5, PS) | – | – | – | 97 | – | – |
| ATTCTCATGGTACAGG (sugars kkkddddkekeddddd, PS) | 41% | 73% | 83% | 94 | 15 | – |
| ATTCTCATGGTACAGG (sugars kkkddddkekekdddd, PS) | – | – | – | 70 | – | – |
| CAACACATCATTGGGT (sugars kkddddekekeddddd, PS) | – | – | – | 80 | – | – |
| CAAGGCTTTTGATGAC (sugars k4 d9 k3, PS) | 28% | 58% | 75% | – | – | – |
| CACATCATTGGGTTAT (sugars k2 d4 e4 k2 d4, PS) | – | – | – | 54 | – | – |
| CACATCATTGGGTTAT (sugars k3 d4 k3 e1 d5, PS) | – | – | – | 78 | – | – |
| CACATCATTGGGTTAT (sugars kkddddkekekkdddd, PS) | – | – | – | 34 | – | – |
| CACCCTCTTTATCCCC (sugars k4 d9 k3, PS) | 47% and 62% | 76% and 82% | 90% | – | – | – |
| CACTTTATACCAGTGT (sugars kkddddkekekddddd, PS) | – | – | – | 14 | – | – |
| CAGATGTGTTTAGGCA (sugars k4 d9 k3, PS) | 78% | 93% | 96% | – | – | – |
| CAGCTATGGAAATGCC (sugars k4 d9 k3, PS) | 34% | 58% | 79% | – | – | – |
| CAGTCAGCAGGAGTAG (sugars k4 d9 k3, PS) | 30% | 54% | 65% | – | – | – |
| CAGTTTTGTAAGTGCA (sugars kdddddkekekddddd, PS) | 52% | 79% | 91% | 92 | 0 | – |
| CAGTTTTGTAAGTGCA (sugars kkddddkdkdkddddd, PS) | – | – | 95% | 95 | – | 41 |
| CATTCAGAATTTCCAC (sugars k3 d4 k3 e1 d5, PS) | 25% | 64% | 82% | 92 | 5 | – |
| CATTCAGAATTTCCAC (sugars kddddkekekeddddd, PS) | – | – | – | 58 | – | – |
| CATTCAGAATTTCCAC (sugars kekddddeekkddddd, PS) | – | – | – | 89 | – | – |
| CCGTCAATATATTCTT (sugars k2 d4 e3 k2 d5, PS) | 61% | 86% | 96% | 98 | 28 | 50 |

| Sequence | target mRNA inhibition (A431, 0.0625 µM) | target mRNA inhibition (A431, 0.25 µM) | target mRNA inhibition (A431, 1 µM) | target mRNA inhibition (A431, 2 µM) [%] | target mRNA inhibition (A431, 0.0156 µM) [%] | target mRNA inhibition (A431, 0.04 µM) [%] |
| --- | --- | --- | --- | --- | --- | --- |
| CCTCATTGCAAATCCT (sugars k4 d9 k3, PS) | 54% | 84% | 96% | – | – | – |
| CCTTATGCTTACTCCA (sugars k4 d9 k3, PS) | 68% | 82% | 93% | – | – | – |
| CGCAATGCTGACTTGG (sugars kkdddddkekeddddd, PS) | 44% | 80% | 93% | 96 | 11 | – |
| CGCAATGCTGACTTGG (sugars kkddddekekeddddd, PS) | 48% | 80% | 93% | 94 | 22 | – |
| CGCAATGCTGACTTGG (sugars kkddddkekekkdddd, PS) | – | – | – | 60 | – | – |
| CGCAATGCTGACTTGG (sugars kkkddddkekekdddd, PS) | – | – | – | 68 | – | – |
| CGTCAATATATTCTTT (sugars kkddddekekeddddd, PS) | – | – | – | 90 | – | – |
| CGTGTTATATTTGATC (sugars kkddddekekeddddd, PS) | – | – | – | 76 | – | – |
| CTAATTTTCTGACTGT (sugars kkddddkdkdkddddd, PS) | – | – | – | 84 | – | – |
| CTAATTTTCTGACTGT (sugars kkddddkekekkdddd, PS) | – | – | – | 71 | – | – |
| CTATTAGAGGGCTAGT (sugars kddddkekekeddddd, PS) | – | – | – | 34 | – | – |
| CTCATTATCAGTCAGC (sugars k4 d9 k3, PS) | 57% | 65% | 64% | – | – | – |
| CTGAAGATTGGCTCTG (sugars kkddddkekekddddd, PS) | – | – | – | 45 | – | – |
| CTGAAGATTGGCTCTG (sugars kkkddddkekekdddd, PS) | – | – | – | 36 | – | – |
| CTGTGATGTGGGACTT (sugars k4 d9 k3, PS) | 50% | 76% | 89% | – | – | – |
| CTGTTCTAACTCTTGG (sugars kkddddekekeddddd, PS) | 64% | 83% | 92% | 97 | 43 | – |
| CTTTAAACTCAGGTGA (sugars k3 d4 k3 e1 d5, PS) | – | – | – | 59 | – | – |
| CTTTAAACTCAGGTGA (sugars kddddkekekeddddd, PS) | – | – | – | 70 | – | – |
| CTTTAAACTCAGGTGA (sugars kkddddkdkdkddddd, PS) | – | – | – | 89 | – | – |
| CTTTATACCAGTGTCT (sugars k3 d10 k3, PS) | 30% | 65% | 88% | – | – | – |
| CTTTATACCAGTGTCT (sugars kkddddkdkdkddddd, PS) | – | – | – | 92 | – | – |
| CTTTATACCAGTGTCT (sugars kkkddddkdkdkdddd, PS) | – | – | – | 87 | – | – |
| GAAATGAACGCAATGC (sugars k4 d9 k3, PS) | 42% | 71% | 87% | – | – | – |
